Results taken from the METLIN SMRT retention time set (Domingo-Almenara et al. 2019).

Assay: gradient 5% acetonitrile 3 min, to 50% in 2 min, to 85% in 15 min, held 3 min, 100 µL/min
Settings: column: Zorbax Extend-C18 2.1 x 50 mm; eluents: water / acetonitrile, 0.1% formic acid
How it was run: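 Values are retention times taken from adduct peaks that software picked and an analyst inspected. The pure standards were run as mixtures of ~100 molecules on HPLC linked to a quadrupole time-of-flight mass spectrometer, in positive and negative ionization mode. A Zorbax Extend-C18 column (2.1 × 50 mm, 1.8 μm) was used at 100 μL/min with water and acetonitrile, each including 0.1% formic acid.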

Compound	RP-LC retention time [s]
Cc1cccc(CNC(=O)CC2CCN(C(=O)c3[nH]c(C)c(C(=O)OC(C)C)c3C)CC2)c1	880
O=C(Nc1ccc2scnc2c1)c1ccc(Cl)cc1Cl	801
CCN1CCn2cc(S(=O)(=O)Nc3ccc(F)cc3Cl)cc2C1=O	736
CC1=C2C(=O)[C@H]3[C@@H](CC=C4C[C@@H](O)CC[C@@]43C)[C@@H]2CC[C@]12O[C@@H]1C[C@H](C)CN[C@H]1C2C (some centres undefined)	699
COc1ccc(NS(=O)(=O)c2c(C)sc(C)c2-c2cc(C(F)(F)F)on2)cc1Cl	1180
Cc1cccc(CNC(=O)c2[nH]c3cc(C)sc3c2CN2CCOCC2)c1	724
COCCN(C)C(=O)c1cn(C2CN(C(=O)NCC(C)C)C2)nn1	624
Cc1noc(-c2ccc(N3CCCC(C(=O)NC(C)c4ccco4)C3)nc2)n1 (centres undefined)	746
CN(C)C(=O)c1cn(C2CN(C(=O)c3cccc(C#N)c3)C2)nn1	613
Cc1cc(C)cc(C(=O)NC2CCN(c3ccccc3)C2=O)c1 (centres undefined)	862
CCCNC(=O)C1CCCN(c2ccc(SCC(=O)Nc3ccccc3C(=O)OCC)nn2)C1 (centres undefined)	750
COC(=O)c1ccc2c(=O)n(-c3cccc(Cl)c3)c(N3CCSCC3)nc2c1	1090
Cn1cc2c3c(cccc31)CN(C(=O)c1ccc(F)c(Cl)c1)CC2	1070
CCN1C[C@]2(C)CC[C@H](OC)[C@]34C2[C@H](OC(C)=O)[C@@]2(OCO[C@@]25CC(OC)[C@H]2C[C@]3(O)C5[C@H]2OC)C14 (some centres undefined)	662
Cc1ccc(Cn2cc(-c3ccncc3)cc2C(=O)Nc2ccc3c(c2)OCO3)cc1	760
Cc1c(NC(=O)c2ccc([N+](=O)[O-])cc2Cl)c(=O)n(-c2ccccc2)n1C	652
Cc1ccc(-c2cc3c(N4CCC(C(=O)NC5CCCCC5)CC4)nccn3n2)c(C)c1	905
Cc1ccc(S(=O)(=O)NCC(=O)Nc2ccc3c(c2)Cc2ccccc2-3)cc1	975
COc1ccc(-n2c(=O)n(C)c(=O)c3cc(C(=O)Nc4ccc(C)c(F)c4)cnc32)cc1	965
O=C(NCc1cccs1)NCC1(CO)CC1	592
O=C(NCCc1nc2cccnc2n1Cc1ccccc1)NCc1ccc(F)cc1	738
O=C(NC1(c2nc(-c3cccnc3)no2)CCCCC1)c1ccc(F)c(F)c1	963
CC(C)OCCCNC(=O)c1nnc(-c2ccc(S(=O)(=O)N3CCCCC3)cc2)o1	917
O=C(NCC1(N2CCOCC2)CCOC1)Nc1ccccc1C(F)(F)F (centres undefined)	596
CC1CCCCC12NCCN=C2NCc1cccc(F)c1 (centres undefined)	640
COc1ccccc1CNc1ncnc2c1CCC2	621

Second part, the compound after the results:

RP-LC retention time [s]	Compound
748	CCCNC(=O)C1CCCN(c2ccc(SCC(=O)Nc3ccc(C)cc3Cl)nn2)C1 (centres undefined)
613	CCn1c(C2CCCN(C(=O)NC(C)C)C2)nn(C)c1=O (centres undefined)
972	O=C1C(O)=C(S(=O)(=O)c2ccc(Cl)cc2)C(c2ccc(F)cc2)N1Cc1ccco1 (centres undefined)
823	COCCCN(Cc1ccco1)c1nc(-c2ccc(OC)cc2)nc2ccccc12
807	CCc1nnc(-c2cc(C)n(CC(=O)Nc3cc(OC)cc(OC)c3)c2C)o1
860	O=C(Cc1cccc2ccccc12)NCCOc1ccc(F)cc1
570	Cc1cc(C)n2c(C)nnc2c1
875	CCN1C(=O)C(C)(C(=O)Nc2ccc(F)cc2F)Oc2cccnc21 (centres undefined)
590	O=C(NCCN1CCOCC1)c1sc2cc(Cl)ccc2c1Cl
886	CCCn1c(-c2cccc(C(=O)NC(CC)c3cccs3)c2)nc2cccnc21 (centres undefined)
974	Cc1ccc(NC(=O)C(C)C2CCN(C(=O)Nc3ccc(F)cc3)CC2)cc1Cl (centres undefined)
684	O=C(NCCCN1CCCCC1)C1CCCN(c2ncc(-c3cccc(F)c3)cn2)C1 (centres undefined)
922	O=c1n(Cc2ccc3c(c2)OCO3)nc2c(S(=O)(=O)N3CCc4ccccc4C3)cccn12
572	Cc1cccc(Nc2nc(C(=O)N3CCC(C(N)=O)CC3)cs2)n1
807	Cc1ccc2nc(-c3cccc(Cl)c3)c(Nc3ccccc3C)n2c1
1040	Cc1nn(C(C)C(=O)N2CCCCCC2)c(=O)c2c(-n3cccc3)n(-c3ccccc3)nc12 (centres undefined)
582	O=C(NCc1cccc(F)c1)c1ccc2c(c1)ncn2CCN1CCCC1
1090	O=S(=O)(Cc1ccc(Cl)cc1)N1CCc2nc(-c3ccccc3)ncc2C1
835	COc1ccc(C2C(C(=O)Nc3ccc4c(c3)OCO4)c3ccccc3C(=O)N2C)cc1 (centres undefined)

RP-LC retention time [s]	Compound
769	O=C(NCc1csc(-c2cccs2)n1)C1CCN(C(=O)c2c(F)cccc2F)CC1
1240	c1ccc(-c2ccc3c(c2)NC(C2Nc4cc(-c5ccccc5)ccc4O2)O3)cc1 (centres undefined)
974	Cc1cc(C)cc(Oc2nccn3c(=O)n(CC(=O)Nc4cc(C)ccc4C)nc23)c1
970	COc1cc(OC)c(NC(=O)c2cc3c(n(-c4ccc(F)cc4)c2=O)CCCC3=O)cc1Cl
924	Cc1cc(F)ccc1NS(=O)(=O)c1ccc2c(c1)C(=O)N(C)c1ncccc1O2
793	C[C@H]1CN(C(=O)COc2ccc(F)cc2)C[C@@H]1c1nc(-c2ccncc2)no1
710	CCc1cccc(C)c1Nc1c(-c2ccc(O)c(OC)c2)nc2nc(C)cc(C)n12
954	Cc1sc(NC(=O)c2ccc(Cl)cc2)nc1-c1ccc2c(c1)NC(=O)CO2
995	CC(C)(C)NC(=O)NC1CCN(c2nc3cccnc3n(Cc3ccccc3)c2=O)CC1
642	Cc1noc(C2CN(C(=O)c3ccc(C#N)cc3)CC23CCOCC3)n1 (centres undefined)
833	CCCc1noc(-c2ccc(-n3ncc(C(=O)N4CCOCC4)c3C)nc2)n1
703	CCCNC(=O)C1CCCN(c2nc3ncn(CC(=O)Nc4ccc(C)cc4C)c(=O)c3s2)C1 (centres undefined)
790	CSc1ccc(CNC(=O)C2c3ccccc3CCN2C(C)=O)cc1 (centres undefined)
896	COCc1nnc(C(=O)Nc2cccc(C(=O)NCCc3c[nH]c4ccc(Cl)cc34)c2)s1
1350	CCOc1ccccc1NC(=O)c1cc2c(=O)n(CC(C)C)c3ccccc3n2n1
1100	CCCNC(=O)c1cc2c(-c3cccs3)nn(-c3ccccc3)c2n1CC
850	CCc1cccc(C)c1N(C(=O)Cn1c(COC)nc2ccccc21)C(C)COC (centres undefined)
1170	CC1CCN(S(=O)(=O)c2ccc(-c3nnc(C(=O)NC4CCCCCC4)o3)cc2)CC1
554	COc1ccc(OC)c(S(=O)(=O)N2CCc3nc[nH]c3C2)c1
